# Laboratory results from US20060148679A1, “Glycosolated enkephalin agents” (priority 2003, published 2006).
# System: male ICR mice
# Test: 55° C. tail flick test for antinociception
# Format: in vivo
# Description: The mouse anti-nociception tests were conducted with male ICR mice weighing 25-35 grams using the 55° C. tail flick test. A baseline latency was taken for each mouse. Then the mice were injected with drug and tested for antinociception at various times post-injection. A ten second cut off point was used to avoid tissue damage. The percent of antinociception was calculated as ((Test latency-Control Latency)/(10-Control Latency))×100. The majority of the drugs were tested at varying dosages.
# Note the in the nomenclature used in Table 2, the D-threonine residues are indicated at “t,” the “L-Ser” indicate the isomer of serine and not a second leucine, and the sugars are indicated in parenthesis at their site of attachment. The molecules have been tested for anti-nociception in the […] animal model using the standard tail flick assay. The molecules were tested for binding to the opioid receptors and for analgesic effect delivered either to the brain (ICV) or to the bloodstream (IV). Table 2 is appended to the end of this specification.
structure (smiles),measurement,setting,value
CN1CC[C@]23c4c5ccc(O)c4O[C@H]2[C@@H](O)C=C[C@H]3[C@H]1C5 [Morphine],IV (Mouse),delivered to the bloodstream (i.v.),6.3 µmol/kg
same,ICV (Mouse) IC50,delivered to the brain (i.c.v.),2.7 nmol
